We go through eight compounds from ChEMBL document CHEMBL1201862, “PubChem BioAssay data set” (2004).

The source made the active and inactive calls.

For experiment [1], the target named is Apoptotic protease-activating factor 1 (Homo sapiens, UniProt O14727). It counts as functional.
The target in experiment [2] is T1, Microphthalmia-associated transcription factor (Homo sapiens, UniProt O75030).
T1 sequence (O75030 whole entry): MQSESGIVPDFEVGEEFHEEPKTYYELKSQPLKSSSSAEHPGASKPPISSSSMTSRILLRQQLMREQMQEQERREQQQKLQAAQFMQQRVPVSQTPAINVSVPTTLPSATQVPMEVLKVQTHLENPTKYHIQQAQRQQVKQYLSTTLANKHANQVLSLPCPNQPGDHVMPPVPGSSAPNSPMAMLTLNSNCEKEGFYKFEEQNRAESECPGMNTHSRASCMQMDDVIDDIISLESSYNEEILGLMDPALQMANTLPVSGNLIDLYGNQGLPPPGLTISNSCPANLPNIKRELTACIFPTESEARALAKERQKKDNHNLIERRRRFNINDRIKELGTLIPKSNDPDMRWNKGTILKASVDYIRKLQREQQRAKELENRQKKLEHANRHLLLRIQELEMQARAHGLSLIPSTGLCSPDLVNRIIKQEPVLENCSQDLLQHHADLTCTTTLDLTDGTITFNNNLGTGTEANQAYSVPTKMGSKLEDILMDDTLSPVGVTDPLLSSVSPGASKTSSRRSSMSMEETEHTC
The experiment in a line: reducers of TRPM1 reporter luminescence, concentration series – cell-based, SK-MEL-5, cherry-picked, set 3, MITF inhibitor project, dose response (AID 493073).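 Further: SK-MEL-5 melanoma cells with luciferase driven by the MITF target TRPM1 promoter.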 It counts as functional.

Experiment [3] in a line: viability loss in HepG2 hepatoma cells – cell-based, ATP luminescence, cherry-pick, activator set 2, cytotoxicity control, dose response (AID 1053143). It counts as functional.
Another experiment deals with Kallikrein-7 (Homo sapiens, UniProt P49862). The experiment in a line: Fluorescence Intensity-based biochemical primary high throughput dose response assay to identify activators of kallikrein-7 (K7) zymogen.
Kallikrein-7, sequence (P49862 whole entry): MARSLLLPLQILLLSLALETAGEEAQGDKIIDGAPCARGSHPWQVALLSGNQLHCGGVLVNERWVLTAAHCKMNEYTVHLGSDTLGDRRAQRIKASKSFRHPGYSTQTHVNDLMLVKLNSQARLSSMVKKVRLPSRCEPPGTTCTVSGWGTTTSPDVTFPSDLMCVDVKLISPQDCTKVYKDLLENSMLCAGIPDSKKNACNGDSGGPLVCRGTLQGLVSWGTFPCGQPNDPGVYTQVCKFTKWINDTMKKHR
Experiment [4] is described as follows: OVCAR8 cell viability loss – plate reader, dry powder samples, PAX8 project, dose response (AID 743197). It counts as functional, cell-based. The settings on record: OVCAR-8.
Experiment [5] can be described thus: IGROV1 cell killing – plate reader, dry powder samples, PAX8 inhibitor project, dose response (AID 743043). The experiment is classed as functional, cell-based. Particulars: IGROV-1.
Experiment [6] is described as follows: OVCAR-3 cell viability loss – plate reader, dry powder samples, PAX8 inhibitor project, dose response (AID 743044). The experiment is classed as functional, cell-based.
Another experiment concerns the target Paired box protein Pax-8 (Homo sapiens, UniProt Q06710). Briefly: PAX8 transcriptional activity inhibition in RMG-I – RMG-I cells, luciferase, cherry-pick, dose response (AID 687027).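 Further: luciferase reporter driven by Pax8 target thyroperoxidase promoter measured by SteadyGlo luminescence.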 The experiment is classed as functional, cell-based.
The nature of experiment [7]: A2780 cell killing – plate reader, dry powder samples, cytotoxicity control, dose response (AID 743046). It counts as functional, cell-based.
Experiment [8] in a line: toxicity toward immortalized ovarian surface epithelium – cell-based, plate reader, dry powder samples, cytotoxicity control for PAX8 inhibitor project, dose response (AID 743045). It counts as functional.
The target in experiment [9] is Metabotropic glutamate receptor 3 (Rattus norvegicus, UniProt P31422). Briefly: inhibitors of rat mGlu3 Galpha15 signaling – TREx293 cells, calcium flux, mGlu3 NAM project, dose response (AID 651840). The experiment is classed as functional. A general note: A change in cytosolic calcium serves as a functional read-out for many receptors and channels.
Metabotropic glutamate receptor 3, sequence (P31422 whole entry): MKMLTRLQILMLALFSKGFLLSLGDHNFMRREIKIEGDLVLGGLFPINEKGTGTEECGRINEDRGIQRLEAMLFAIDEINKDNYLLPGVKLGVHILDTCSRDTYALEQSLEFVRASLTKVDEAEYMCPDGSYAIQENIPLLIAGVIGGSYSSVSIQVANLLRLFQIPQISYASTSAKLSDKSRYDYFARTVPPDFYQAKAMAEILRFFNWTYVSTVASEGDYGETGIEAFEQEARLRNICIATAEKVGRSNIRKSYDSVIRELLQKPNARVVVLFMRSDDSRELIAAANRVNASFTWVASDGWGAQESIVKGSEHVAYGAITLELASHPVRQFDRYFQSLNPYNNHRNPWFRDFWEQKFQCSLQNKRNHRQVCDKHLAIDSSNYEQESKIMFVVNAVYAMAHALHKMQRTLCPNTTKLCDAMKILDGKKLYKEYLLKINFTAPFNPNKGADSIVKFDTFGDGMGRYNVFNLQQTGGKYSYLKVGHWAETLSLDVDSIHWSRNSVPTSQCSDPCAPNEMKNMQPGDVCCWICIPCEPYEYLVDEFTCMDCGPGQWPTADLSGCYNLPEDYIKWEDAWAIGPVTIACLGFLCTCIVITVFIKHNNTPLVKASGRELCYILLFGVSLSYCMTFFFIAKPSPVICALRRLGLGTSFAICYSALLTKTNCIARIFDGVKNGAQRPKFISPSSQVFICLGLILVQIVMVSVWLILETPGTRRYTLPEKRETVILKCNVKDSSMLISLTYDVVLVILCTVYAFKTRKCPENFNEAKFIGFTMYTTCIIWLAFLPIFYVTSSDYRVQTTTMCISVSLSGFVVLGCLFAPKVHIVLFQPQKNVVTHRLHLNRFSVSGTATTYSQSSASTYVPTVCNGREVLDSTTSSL
The target in experiment [10] is Muscarinic acetylcholine receptor M5 (Homo sapiens, UniProt P08912). Briefly: potentiation of ACh response at human M5 – cell-based, concentration-response curve, dose response (AID 651878). The experiment is classed as functional.
Muscarinic acetylcholine receptor M5, sequence (P08912 whole entry): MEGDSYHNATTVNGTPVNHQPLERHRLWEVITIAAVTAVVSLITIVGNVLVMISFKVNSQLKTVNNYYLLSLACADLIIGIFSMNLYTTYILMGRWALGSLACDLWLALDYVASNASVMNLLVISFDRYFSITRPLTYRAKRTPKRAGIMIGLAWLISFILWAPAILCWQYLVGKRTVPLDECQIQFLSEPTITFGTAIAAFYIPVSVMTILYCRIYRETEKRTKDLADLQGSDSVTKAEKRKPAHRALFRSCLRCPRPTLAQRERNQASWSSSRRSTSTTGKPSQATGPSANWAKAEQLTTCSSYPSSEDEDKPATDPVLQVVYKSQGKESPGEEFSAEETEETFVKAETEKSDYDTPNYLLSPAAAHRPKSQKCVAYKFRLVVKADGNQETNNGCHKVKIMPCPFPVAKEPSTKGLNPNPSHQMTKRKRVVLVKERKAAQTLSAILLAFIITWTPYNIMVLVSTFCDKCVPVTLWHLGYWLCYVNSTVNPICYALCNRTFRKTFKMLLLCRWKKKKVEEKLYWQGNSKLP
Experiment [11] can be described thus: P. falciparum Dd2 growth inhibitors, dose response, SYBR Green, cherry-picked samples (AID 1159567). It counts as functional, cell-based.
A short description of experiment [12]: reduced cellular PGC1a acetyl-lysine signal – cell-based, cherry-picked samples, dose response (AID 720514).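 Further: potency may reflect raised or lowered acetylation signal.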 It counts as functional.
Experiment [13] in a line: toxicity to human hepatoma HepG2 cells – cell-based, cherry-picked samples, cytotoxicity control, dose response (AID 1159577). The experiment is classed as functional.
The next experiment deals with Caspase-6 (Homo sapiens, UniProt P55212). The experiment in a line: inhibition of CASP6 peptide cleavage – biochemical, VEID-R110 fluorescence, cherry-pick, dose response (AID 720632).
Caspase-6, sequence (P55212 24-179 limits assumed): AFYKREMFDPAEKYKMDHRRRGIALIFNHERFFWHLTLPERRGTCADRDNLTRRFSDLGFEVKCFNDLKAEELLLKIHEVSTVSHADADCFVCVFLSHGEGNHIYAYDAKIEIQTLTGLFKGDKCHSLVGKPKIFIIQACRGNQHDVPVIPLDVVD
Caspase-6, sequence (P55212 194-293 limits assumed): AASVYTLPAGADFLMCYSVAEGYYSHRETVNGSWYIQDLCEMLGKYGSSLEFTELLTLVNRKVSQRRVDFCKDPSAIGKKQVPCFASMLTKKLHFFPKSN
Experiment [14] in a line: Trypanosoma cruzi growth suppression in host cells – NIH3T3 host cells, beta-gal luminescence, confirmation (AID 2044).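 Further: intracellular parasites grown in NIH/3T3 mouse fibroblasts as host cells; luminescent beta-galactosidase reporter signal from transgenic T. cruzi replicating inside host cells; inhibitors lower the luminescence signal.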 It counts as functional, cell-based.
The nature of experiment [15]: NIH3T3 cell viability loss – ATP luminescence, mouse fibroblasts, counter-screen, dose response (AID 2010).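 Further: cells exposed to compound for about 90 hours before reading.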 The experiment is classed as functional, cell-based.

In general, IC50 refers to the concentration needed to halve the response being measured. One may read the AC50 as the concentration at which the activity in the assay is half-maximal. As a reminder, the EC50 is the midpoint of the concentration-response curve.

Paired box protein Pax-8, sequence (Q06710 whole entry): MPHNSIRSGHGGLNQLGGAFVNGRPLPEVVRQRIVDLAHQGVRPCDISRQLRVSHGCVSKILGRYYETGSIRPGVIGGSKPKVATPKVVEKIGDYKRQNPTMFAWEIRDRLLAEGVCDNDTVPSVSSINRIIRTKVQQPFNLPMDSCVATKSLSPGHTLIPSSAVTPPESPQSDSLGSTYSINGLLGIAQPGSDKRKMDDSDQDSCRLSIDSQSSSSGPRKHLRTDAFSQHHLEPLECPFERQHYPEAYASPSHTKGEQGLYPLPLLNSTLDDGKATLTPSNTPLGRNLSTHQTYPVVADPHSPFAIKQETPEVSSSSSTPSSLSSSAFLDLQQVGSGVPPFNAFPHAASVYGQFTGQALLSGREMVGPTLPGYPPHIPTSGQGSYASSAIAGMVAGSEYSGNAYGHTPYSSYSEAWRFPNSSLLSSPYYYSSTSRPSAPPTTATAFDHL
Apoptotic protease-activating factor 1, sequence (O14727 whole entry): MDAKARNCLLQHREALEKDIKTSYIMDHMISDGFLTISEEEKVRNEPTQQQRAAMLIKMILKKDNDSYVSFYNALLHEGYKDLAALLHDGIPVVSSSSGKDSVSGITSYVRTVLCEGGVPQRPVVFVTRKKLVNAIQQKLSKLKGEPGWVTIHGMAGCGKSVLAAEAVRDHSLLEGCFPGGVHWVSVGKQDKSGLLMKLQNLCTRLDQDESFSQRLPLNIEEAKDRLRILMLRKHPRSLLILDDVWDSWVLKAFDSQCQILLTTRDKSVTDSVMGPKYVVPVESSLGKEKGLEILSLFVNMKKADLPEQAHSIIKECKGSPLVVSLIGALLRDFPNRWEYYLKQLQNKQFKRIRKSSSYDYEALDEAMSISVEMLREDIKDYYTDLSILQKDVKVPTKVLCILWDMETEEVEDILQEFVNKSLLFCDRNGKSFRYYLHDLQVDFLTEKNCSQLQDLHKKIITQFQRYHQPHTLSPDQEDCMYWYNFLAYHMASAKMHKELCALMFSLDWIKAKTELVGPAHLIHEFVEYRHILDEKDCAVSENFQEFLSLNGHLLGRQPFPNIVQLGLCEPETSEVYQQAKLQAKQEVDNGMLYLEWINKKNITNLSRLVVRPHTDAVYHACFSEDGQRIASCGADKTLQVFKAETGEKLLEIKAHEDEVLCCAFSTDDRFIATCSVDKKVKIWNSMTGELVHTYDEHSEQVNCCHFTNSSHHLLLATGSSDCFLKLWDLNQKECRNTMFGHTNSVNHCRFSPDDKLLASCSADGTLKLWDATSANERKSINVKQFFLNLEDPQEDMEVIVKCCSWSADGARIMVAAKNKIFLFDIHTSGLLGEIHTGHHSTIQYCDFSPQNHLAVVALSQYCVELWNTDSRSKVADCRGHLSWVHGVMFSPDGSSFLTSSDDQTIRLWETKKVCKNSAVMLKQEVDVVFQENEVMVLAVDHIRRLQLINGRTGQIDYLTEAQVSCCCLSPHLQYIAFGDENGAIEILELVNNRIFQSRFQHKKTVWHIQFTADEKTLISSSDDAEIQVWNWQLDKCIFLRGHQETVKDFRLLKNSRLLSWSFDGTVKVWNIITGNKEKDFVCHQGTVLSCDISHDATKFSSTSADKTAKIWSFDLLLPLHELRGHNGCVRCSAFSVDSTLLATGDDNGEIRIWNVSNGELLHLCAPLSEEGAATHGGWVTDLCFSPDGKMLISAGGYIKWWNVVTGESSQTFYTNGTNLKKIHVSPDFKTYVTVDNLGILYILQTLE

`CCc1ccc(NC2=CC(=O)C(=O)c3ccccc32)cc1`: in experiment [1], the IC50 was 3.54 µM (active). Further, the AC50 in experiment [2] was 3.59 µM (active); in experiment [3], 6.77 µM (active).

As for `Cc1cccn2c(=O)c3cc(C#N)/c(=N/C(=O)c4ccccc4)n(Cc4ccco4)c3nc12`, on Kallikrein-7, the EC50 was 7.95 µM (active).

With `C[C@@H]1CCCCO[C@H](CN(C)Cc2ccc(C(F)(F)F)cc2)[C@H](C)CN([C@H](C)CO)C(=O)c2cc(NS(=O)(=O)c3ccc(Cl)cc3)ccc2O1`, the half-maximal activity concentration (AC50) in experiment [4] was 15.9 µM (active); in experiment [5], 34.6 µM (active); in experiment [6], 12.7 µM (active); at Paired box protein Pax-8, 5.45 µM (active); in experiment [7], 39 µM (active).

On to `C[C@@H]1CCCCO[C@H](CN(C)Cc2ccccc2)[C@H](C)CN([C@@H](C)CO)C(=O)c2cc(NC(=O)Nc3ccc(C(F)(F)F)cc3)ccc2O1`, for which the values for the AC50 (in [6]; in experiment [8]; at Paired box protein Pax-8) were 42.1 µM (active), 45.7 µM (active) and 9.11 µM (active), respectively.

Take `COc1ccc(C#Cc2ccc(C(=O)N3CCC[C@@H](O)C3)c(F)c2)cc1`: the IC50 in experiment [9] was determined as 0.509 µM.

As to `Cc1ccc(OCCN2C(=O)C(=O)c3cc(OC(F)(F)F)ccc32)cc1`, the 50% effective concentration (EC50) in experiment [10] was 0.52 µM (active).

For the compound `OC[C@H]1[C@H](c2ccc(C#CC3CCCC3)cc2)[C@@H]2CN(CCC(F)(F)F)CCCCN12`, the AC50 was 0.848 µM (active) in [11], 16.8 µM (active) in experiment [12] and 10.4 µM (active) in [13].

Take `Cn1ccs/c1=N\C(=O)c1ccc([N+](=O)[O-])o1`: the EC50 in “cells” was 0.03 µM (active); in [14] it was < 0.1 µM (active); in [15], 24 µM (active). Also, on Caspase-6, the half-maximal activity concentration (AC50) was 6.3 µM (active).
